SMILES strings stand for the structures.

From patent US5002942A, “1,5-benzothiazepine derivatives, their preparation and their use in the treatment of cardiovascular disorders” (Sankyo Company, Limited, priority 1988, dated 1991) come the findings set out here.

Test [1] has as its target T1, calcium channel (Cavia porcellus, UniProt O35505).
T1 construct: The taenia coli excised from a male guinea pig; from tissue; host or cells: guinea pig taenia coli (excised smooth muscle strip)
The test is described as follows: Calcium channel blocking action (calcium-induced contraction of excised taenia coli). The following applies: 0.5 h, test compound 10^-8 g/ml, 30 minutes incubation, guinea pig taenia coli, hydrochlorides (Example 34: fumarate). The protocol:
The taenia coli excised from a male guinea pig weighing from 250 to 300 g was cut into a length of 6 to 7 mm and suspended in an organ bath filled with Tylord's solution (sodium chloride 97 mM, potassium chloride 40 mM, sodium hydrogen carbonate 11.9 mM, disodium hydrogen phosphate 0.4 mM, glucose 5.5 mM; pH 7.1). The bath solution contained no calcium ions and was aerated with a mixture of 95% oxygen and 5% carbon dioxide by volume. To this solution were added 10 and 30 mM solutions of calcium chloride at 30 minute intervals to obtain a final concentration of 0.4 mM. The tension which developed 1n the taenia coli was measured by an isometric transducer. The organ bath was then washed twice or more with Tylord's solution containing no calcium ions after which it was allowed to equilibrate for 30 minutes. After the muscle had stabilised, test compound dissolved in physiological saline was added to the bath to a final concentration of 10^-8 g/ml, and the bath was incubated for 30 minutes. 30 and 100 mM solutions of calcium chloride were again added to the bath, and the developed tension was measured. From the magnitude of the calcium-induced contraction before and after the test drug had been added the inhibitory rate was calculated using the following formula: [formula] where: Co=contraction induced by calcium ion before a test drug was added: and
Ct=contraction induced by calcium ion after the test drug had been added.
In addition to the compounds of the invention, we also carried out the same test with the following compounds of the prior art: (±)-diltiazem, […], (±)-8-chlorodiltiazem (8-Cl-diltiazem). (±)-8-methoxydiltiazem (8-MeO-diltiazem) and (±)-8-benzyloxydiltiazem (8-BzO-diltiazem).
In the Table, the compounds of the invention are identified by the number of the one of the foregoing Examples in which the compound was prepared. The prior art compounds are identified by the abbreviated generic names shown above in parentheses.
All of the compounds except for that of Example 34 were employed as the hydrochlorides; that of Example 34 was employed as the fumarate.

In test [2] the test system is SHR (spontaneously hypertensive rats). The test is described as follows: Antihypertensive action in SHR. To be noted: Dose 10 mg/kg, conscious male SHR, hydrochlorides, 24 hours; for change in vivo at 10 mg/kg: Rattus norvegicus, po, read-out: Maximum hypotension (%). The test is classed as in vivo. The protocol:
Male SHR (spontaneously hypertensive rats), 23 to 30 weeks old, were anesthesized with sodium pentobarbital 50 mg/kg intraperitoneal administration), and a polyethylene cannula was inserted through the left femoral artery into the abdominal aorta. The other end of the cannula was led out of the body and fixed at the back of the neck. One week after the operation, when the animal had recovered from the stress of the surgery, the other end of the cannula was connected to a blood pressure measuring device, which was constructed according to the directions of Laffan et al. [Laffan, P.J., Peterson A., Hitch S,W. and Jeunelot C., Cardiovascular Res. 6. 319-324 (1972)], but with slight modifications. The blood pressure and heart rate of the conscious and […] SHR were measured. After the blood pressure and the heart rate had stabilised for more than one hour, the test drug was administered by […]. After administration of the test sample, the blood pressure and the heart rate were measured every 15 minutes over a period of 24 hours. The maximum decrease in blood pressure and the half-time of the blood pressure lowering activity thus determined are shown in Table 6.
All of the test compounds were employed as the hydrochlorides.

T1 sequence (O35505 whole entry): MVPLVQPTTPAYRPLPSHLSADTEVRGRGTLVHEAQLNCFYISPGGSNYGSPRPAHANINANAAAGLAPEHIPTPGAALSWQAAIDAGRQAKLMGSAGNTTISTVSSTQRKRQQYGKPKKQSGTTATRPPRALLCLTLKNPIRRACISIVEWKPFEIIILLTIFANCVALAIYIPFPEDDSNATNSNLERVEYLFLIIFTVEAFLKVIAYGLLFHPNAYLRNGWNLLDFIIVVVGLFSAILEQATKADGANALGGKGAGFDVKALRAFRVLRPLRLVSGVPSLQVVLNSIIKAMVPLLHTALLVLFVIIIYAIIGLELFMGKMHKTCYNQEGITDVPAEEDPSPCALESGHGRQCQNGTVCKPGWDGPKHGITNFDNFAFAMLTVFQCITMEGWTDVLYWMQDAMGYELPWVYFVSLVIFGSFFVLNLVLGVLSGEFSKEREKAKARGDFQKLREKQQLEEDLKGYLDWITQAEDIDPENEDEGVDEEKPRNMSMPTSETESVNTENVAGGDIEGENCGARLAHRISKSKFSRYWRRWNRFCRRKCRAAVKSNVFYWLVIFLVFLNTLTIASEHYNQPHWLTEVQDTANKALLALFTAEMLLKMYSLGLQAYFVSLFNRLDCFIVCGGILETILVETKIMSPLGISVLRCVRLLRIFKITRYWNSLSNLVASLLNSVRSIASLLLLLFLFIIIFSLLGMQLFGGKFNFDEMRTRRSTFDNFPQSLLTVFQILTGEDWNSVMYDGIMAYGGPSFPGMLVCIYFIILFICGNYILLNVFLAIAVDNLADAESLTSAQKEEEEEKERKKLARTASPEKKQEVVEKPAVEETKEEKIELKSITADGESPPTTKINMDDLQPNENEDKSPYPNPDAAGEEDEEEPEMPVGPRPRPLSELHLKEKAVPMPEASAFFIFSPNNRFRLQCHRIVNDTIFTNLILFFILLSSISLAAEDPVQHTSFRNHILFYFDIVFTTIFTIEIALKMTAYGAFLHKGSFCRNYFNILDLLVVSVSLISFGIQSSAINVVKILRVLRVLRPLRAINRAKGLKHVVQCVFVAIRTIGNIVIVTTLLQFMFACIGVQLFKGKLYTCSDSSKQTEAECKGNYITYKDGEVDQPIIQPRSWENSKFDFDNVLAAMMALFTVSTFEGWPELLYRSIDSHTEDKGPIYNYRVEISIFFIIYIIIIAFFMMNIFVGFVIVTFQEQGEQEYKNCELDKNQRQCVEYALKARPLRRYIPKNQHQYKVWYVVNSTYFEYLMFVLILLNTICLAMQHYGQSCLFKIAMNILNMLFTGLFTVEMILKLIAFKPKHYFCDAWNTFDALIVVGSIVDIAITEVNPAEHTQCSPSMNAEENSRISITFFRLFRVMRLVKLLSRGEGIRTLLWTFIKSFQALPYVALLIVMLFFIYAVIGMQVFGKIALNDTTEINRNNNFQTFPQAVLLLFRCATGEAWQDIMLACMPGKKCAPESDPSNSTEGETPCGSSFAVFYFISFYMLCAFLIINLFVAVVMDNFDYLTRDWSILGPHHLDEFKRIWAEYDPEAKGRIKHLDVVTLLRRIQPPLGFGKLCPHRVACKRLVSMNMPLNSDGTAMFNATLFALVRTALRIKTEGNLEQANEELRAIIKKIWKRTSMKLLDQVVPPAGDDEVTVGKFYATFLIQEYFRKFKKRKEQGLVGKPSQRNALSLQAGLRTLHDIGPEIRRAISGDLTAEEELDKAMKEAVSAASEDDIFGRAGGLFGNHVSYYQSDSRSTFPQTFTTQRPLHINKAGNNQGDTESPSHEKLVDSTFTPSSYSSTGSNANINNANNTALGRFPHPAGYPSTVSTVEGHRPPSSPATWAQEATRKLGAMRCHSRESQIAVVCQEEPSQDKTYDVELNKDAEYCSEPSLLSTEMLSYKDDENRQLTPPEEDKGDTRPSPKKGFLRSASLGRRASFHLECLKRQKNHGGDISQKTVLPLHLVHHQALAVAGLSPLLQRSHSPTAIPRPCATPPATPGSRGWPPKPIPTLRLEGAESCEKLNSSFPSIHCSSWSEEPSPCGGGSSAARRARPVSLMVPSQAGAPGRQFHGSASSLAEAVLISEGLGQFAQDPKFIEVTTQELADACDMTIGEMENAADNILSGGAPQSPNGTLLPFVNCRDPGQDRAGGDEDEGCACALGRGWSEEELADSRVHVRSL

On to `COc1ccc([C@@H]2Sc3cc(Oc4ccc(F)cc4)ccc3N(CCN(C)C)C(=O)[C@@H]2OC(C)=O)cc1F` [Example 32, (2S, 3S)-3-Acetoxy-5-(2-dimethylaminoethyl)-2-(3-fluoro-4-methoxyphenyl)-8-(4-fluorophenoxy)-2,3-dihydro-1,5-benzothiazepin-4(5H)-one], for which, in test [1], the inhibition at 0.01 µg/mL came out at 100%. For the same compound, in test [2], the “Half-time of hypotension action” value came out at 13.8 h and the change in vivo at 10 mg/kg is -41%.

As to `CCN(CC)CCN1C(=O)[C@H](OC(C)=O)[C@H](c2ccc(OC)cc2)Sc2cc(Oc3ccccc3)ccc21` [Example 36, (2S, 3S)-3-Acetoxy-5-(2-diethylaminoethyl)-2,3-dihydro-2-(4-methoxyphenyl)-8-phenoxy-1,5-benzothiazepin-4(5H)-one], the inhibition at 0.01 µg/mL in test [1] stood at 80%. In test [2], the “Half-time of hypotension action” value worked out at 8.2 h and the change in vivo at 10 mg/kg is -29%.

As to `COc1ccc([C@@H]2Sc3cc(Cc4ccc(F)cc4)ccc3N(CCN(C)C)C(=O)[C@@H]2OC(C)=O)cc1` [Example 38, (2S, 3S)-3-Acetoxy-5-(2-dimethylaminoethyl)-8-(4-fluoro-benzyl)-2,3-dihydro-2-(4-methoxyphenyl)-1,5-benzothiazepin-4(5H)-one], the inhibition at 0.01 µg/mL in test [1] is 69%. In test [2], the “Half-time of hypotension action” value was determined as 11.8 h and the change in vivo at 10 mg/kg was -32%.
